Measured values from patent US9243237B2, “Method for mass production of factor VII/VIIA” (HANMI SCIENCE CO., LTD, priority 2010, dated 2016).

What was measured:
Format in all cases: cell-based, Chinese hamster
[1] = system: CHO/dhfr- cells transformed with pX0GC-FVII; test: Selection of human factor VII-expressing cells in MTX selection medium, expression level by enzyme immunoassay; settings: MTX concentration of 10 nM or higher
Procedure: The transformed cells of Example <2-1> were seeded at a density of 2×10^4 cells/well to 24-well plates. When the cells were grown to almost full confluence, serum-free CHO-A-SFM (Gibco, Cat. No. 05-5072EF) supplemented with 0.3 mM sodium butyrate (Sigma, Cat. No. B5887) was aliquoted in an amount of 200 μL/well, followed by incubation at 33° C. for 48 hours in a 5% CO2 incubator. The cell culture was transferred to 1.5 mL tubes and centrifuged. Expression levels of human factor VII in the supernatants were measured by taking measurements using an enzyme immunoassay kit (American Diagnostica, Cat. no. 877) according to the manufacturer's instruction. In detail, the cell culture and the standard substance enclosed in the kit were diluted to certain concentrations in physiological saline containing 0.05% Tween-20, and the dilutions were added in an amount of 100 μL to each well of the kit and allowed to react at room temperature for one hour on a plate shaker. […] Five minutes later, 50 μL of a stopping solution was added to each well, followed by measuring absorbance at 450 nm. A standard curve and a function were obtained from the concentrations of the standard solution and the absorbance values obtained. […]

[2] = system: hFVII-expressing recombinant CHO cell line (HMF708); test: Growth of the cell line in mass-scale production medium (4 L incubation tanks, continuous feed) containing sodium butyrate, hFVII level by enzyme immunoassay; settings: for FVII Level (% compared to control %): 4 L, 30.0°C, 11-18 days
Procedure: (§1) The transformed cells of Example <2-1> were seeded at a density of 2×10^4 cells/well to 24-well plates. When the cells were grown to almost full confluence, serum-free CHO-A-SFM (Gibco, Cat. No. 05-5072EF) supplemented with 0.3 mM sodium butyrate (Sigma, Cat. No. B5887) was aliquoted in an amount of 200 μL/well, followed by incubation at 33° C. for 48 hours in a 5% CO2 incubator. The cell culture was transferred to 1.5 mL tubes and centrifuged. Expression levels of human factor VII in the supernatants were measured by taking measurements using an enzyme immunoassay kit (American Diagnostica, Cat. no. 877) according to the manufacturer's instruction. In detail, the cell culture and the standard substance enclosed in the kit were diluted to certain concentrations in physiological saline containing 0.05% Tween-20, and the dilutions were added in an amount of 100 μL to each well of the kit and allowed to react at room temperature for one hour on a plate shaker. After being washed four times with the washing solution enclosed in the kit, each of the wells was incubated at room temperature for one hour with 100 μL of an anti-human factor VII antibody on a plate shake. Each well was again washed four times with the washing solution and then incubated at room temperature for 30 min with 100 μL of an HRP (horseradish peroxidase)-conjugated antibody to the anti-human factor VII antibody. Subsequently, the wells were washed four times, and incubated with 100 μL of a substrate per well at room temperature. Five minutes later, 50 μL of a stopping solution was added to each well, followed by measuring absorbance at 450 nm. A standard curve and a function were obtained from the concentrations of the standard solution and the absorbance values obtained.
(§2) One vial (1×10^7 cells/mL) of the hFVII-expressing cell line which had been selected and assimilated to suspension culture in Example <2-3> was taken from a liquid nitrogen tank and thawed as soon as possible in a 37° C. bath. After being washed once with a seed culturing medium (EX-CELL CHO medium (Sigma, Cat. No. 63225C) supplemented with 0.3 g/L glutamine), the cell culture was centrifuged at 90×g for min and then inoculated into 50 mL of a seed culture medium in an Erlenmeyer flask (Corning, USA cat#431144). When grown for 1-2 days to a density of 10×10^5 cell/mL in a CO2 incubator (37° C., 5% CO2), the cells were centrifuged again in the same manner and then sub-cultured in 100 mL of a fresh seed culture medium in a new Erlenmeyer flask. The double-volume passage was continued until a sufficient number of cells were achieved.
The effect of sodium butyrate on the production of hFVII was examined when the cells were cultured on mass scale. For this, first, the recombinant CHO cell line which was being cultured was inoculated at a density of 1.2×10^7 cells/mL into 4 L of a production medium in each of incubation tanks which contained sodium butyrate (Cat. no. B5887, SIGMA, USA) at concentrations of 0.3, 1.0, 1.5 and 2.0 mM, respectively. The cells grown in the presence of 0.3 mM sodium butyrate were used as a control for comparison. To produce hVII, the cells were cultured at 30.0° C. for 11-18 days with the medium continuously fed at 0.5-1.0 VVD. The culturing was stopped when cellular activity was reduced to less than 80%. […]
In addition, after the cell cultures taken during the cultivation was centrifuged, the levels of hFVII in the supernatants were measured using an enzyme immunoassay method as in Example <2-2>.

[3] = system: hFVII-expressing recombinant CHO cell line (HMF708); test: Growth of hFVII-expressing cell line in production medium containing sodium butyrate (50 mL Erlenmeyer flasks), hFVII level by enzyme immunoassay; settings: for FVII Level (% compared to control %): 30.0°C, day 4, supernatant
Procedure: as §1
as §2, with “assimilated to a suspension culture” for “assimilated to suspension culture”, “90×g for 5 min and” for “90×g for min and”, “of 10×10^5 cells/mL in a” for “of 10×10^5 cell/mL in a”, “continued until there was a sufficient” for “continued until a sufficient”, “number of cells.” for “number of cells were achieved.”
The effect of sodium butyrate on the production of hFVII was examined. For this, first, the recombinant CHO cell line which was being cultured was inoculated at a density of 5.0×10^6 cells/mL into 50 mL of a production medium in each of three Erlenmeyer flasks which contained sodium butyrate (Cat. no. B5887, SIGMA, USA) at concentrations of 0.3, 1.0 and 1.5 mM, respectively. The cells grown in the presence of 0.3 mM sodium butyrate were used as a control for comparison. The cells were cultured at 30.0° C. for four days to produce hFVII. On day 4, the cell concentration and cellular activity of the cell cultures were examined. There were no changes in cell density and cellular activity among the cell cultures of different butyrate concentrations.
In addition, after centrifugation of the cell cultures on Day 4, the levels of hFVII in the supernatants were measured using an enzyme immunoassay method as in Example <2-2>.

[4] = 0.3 mM sodium butyrate (control)
[5] = 1.5 mM sodium butyrate, control = 0.3 mM
[6] = 1.0 mM sodium butyrate, day 4, control = 0.3 mM
[7] = 1.5 mM sodium butyrate, day 4, control = 0.3 mM
[8] = day 4, among cultures with 0.3, 1.0 and 1.5 mM butyrate

| Compound | expression level of human factor VII [1] | FVII Level (% compared to control %) [2, 4] [%] | FVII Level (% compared to control %) ([2]; 1 mM sodium butyrate, control = 0.3 mM) [%] | FVII Level (% compared to control %) [2, 5] [%] | FVII Level (% compared to control %) ([2]; 2.0 mM sodium butyrate, control = 0.3 mM) [%] | amounts of FVII produced ([2]; higher concentrations of sodium butyrate, in spite of reduced periods of time of production) | FVII Level (% compared to control %) [3, 4] [%] | Final Cell Density (% compared to control) ([3]; 0.3 mM sodium butyrate (control), day 4) [%] | FVII Level (% compared to control %) ([3]; 1.0 mM sodium butyrate, control = 0.3 mM) [%] | Cellular Activity (% compared to control) [3, 6] [%] | Final Cell Density (% compared to control) [3, 6] [%] | FVII Level (% compared to control %) [3, 5] [%] | Cellular Activity (% compared to control) [3, 7] [%] | Final Cell Density (% compared to control) [3, 7] [%] | production of hFVII ([3]; 0.3, 1.0 and 1.5 mM sodium butyrate) | activity at 300 µM ([3]; Cricetulus griseus, CHO, 96 h, 0.3 mM sodium butyrate (control), day 4, read-out: Cellular Activity (% compared to control)) [%] | cell density [3, 8] | cellular activity [3, 8] |
| --- | --- | --- | --- | --- | --- | --- | --- | --- | --- | --- | --- | --- | --- | --- | --- | --- | --- | --- |
| CN(Cc1cnc2nc(N)nc(N)c2n1)c1ccc(C(=O)N[C@@H](CCC(=O)O)C(=O)O)cc1 [MTX, Methotrexate] | not increased |  |  |  |  |  |  |  |  |  |  |  |  |  |  |  |  |  |
| CCCC(=O)[O-].[Na+] [Sodium Butyrate, sodium butyrate] |  | 100.0 | 154.5 | 157.7 | 127.6 | higher amounts of FVII were produced | 100.0 | 100.0 | 164.9 | 100.2 | 106.8 | 190.1 | 99.9 | 108.5 | increased in a sodium butyrate dose-dependent manner | 100 | no changes | no changes |
